Laboratory results from PMC8773721, “A Small Molecule–Drug Conjugate (SMDC) Consisting of a Modified Camptothecin Payload Linked to an αVß3 Binder for the Treatment of Multiple Cancer Types” (Cancers, 2022).
Read-outs that look alike come from different tables or passages of the source. Marks after values point to notes of the source that are not given here.

Columns and labels:
[1] = test system: SW480 CRC xenograft model; assay: SW480 xenograft antitumor efficacy; type: in vivo, mouse; conditions: for Treatment/Control Ratio: Day 24; for Response: PD (progressive disease) / Response: PR (partial response) / Response: SD (stable disease): Day 24, RECIST
Description: In the SW480 efficacy study, immunocompromised female NMRI nu/nu mice (8–10 weeks, 18–21 g, Taconic M&B A/S) were inoculated subcutaneously with 3 × 10^6 SW480 cells suspended in 50% Matrigel®/50% medium. The mice were randomized into control and treatment groups (n = 8) when the SW480 tumors reached an average size of 25 mm^2.
Subcutaneous tumor growth was monitored by measuring tumor area (length × width) using a caliper. Animal body weight was monitored as an indicator of treatment-related toxicity. Measurement of tumor area and body weight was performed at least twice weekly. Individual animals were sacrificed when showing >20% body weight loss or when tumors reached a maximum area of ~200 mm^2 unless ulceration or other predefined humane endpoints were met. At study termination, the animals were sacrificed by cervical dislocation under CO2 anesthesia. T/C (treatment/control) ratios were calculated using the final mean tumor areas at study or control group termination. […] Progressive disease (PD) was defined as a greater than 20% increase in tumor size. Partial response (PR) was defined as a greater than 30% reduction in tumor size. Complete response (CR) was defined as an absence of any palpable tumor mass. No tumor growth or a slight reduction (<30%) or small increase (<20%) in tumor size was defined as stable disease (SD).

[2] = test system: NCI-H69 SCLC xenograft model; assay: NCI-H69 xenograft antitumor efficacy and tolerability; type: in vivo, mouse; conditions: for Treatment/Control Ratio / Response: PD (progressive disease) / Response: SD (stable disease): NCI-H69, Day 31; for Response: PD (progressive disease) / Response: SD (stable disease): RECIST
Method: Irinotecan, doxorubicin, topotecan, cisplatin, and 5-FU were diluted in 0.9% NaCl.
In the NCI-H69 efficacy study, immunocompromised female NMRI nu/nu mice (8–10 weeks, 18–21 g, Taconic M&B A/S) were inoculated s.c. with 3 × 10^6 NCI-H69 cells suspended in 50% Matrigel®/50% medium. The mice were randomized into control and treatment groups (n = 8) when the NCI-H69 tumors reached an average size of 25 mm^2.
(§3) Subcutaneous tumor growth was monitored by measuring tumor area (length × width) using a caliper. Animal body weight was monitored as an indicator of treatment-related toxicity. Measurement of tumor area and body weight was performed at least twice weekly. Individual animals were sacrificed when showing >20% body weight loss or when tumors reached a maximum area of ~200 mm^2 unless ulceration or other predefined humane endpoints were met. At study termination, the animals were sacrificed by cervical dislocation under CO2 anesthesia. T/C (treatment/control) ratios were calculated using the final mean tumor areas at study or control group termination. Treatment responses were defined on the last day of the vehicle group (Day 38 for 786-O, Day 86 for MX-1, Day 31 for NCI-H69, and Day 24 for SW480) using the RECIST criteria [59]. Progressive disease (PD) was defined as a greater than 20% increase in tumor size. Partial response (PR) was defined as a greater than 30% reduction in tumor size. Complete response (CR) was defined as an absence of any palpable tumor mass. No tumor growth or a slight reduction (<30%) or small increase (<20%) in tumor size was defined as stable disease (SD).

[3] = test system: MX-1 TNBC xenograft model
Description: In the MX-1 efficacy study, the in vivo-grown tumor fragments (2 mm × 2 mm × 2 mm) were implanted s.c. in immunocompromised female NMRI nu/nu mice (8–10 weeks, 18–21 g, Taconic M&B A/S). The mice were randomized into control and treatment groups (n = 8) when the MX-1 tumors reached an average size of 25 mm^2.
as §3

NCI-H1975-BCRP cells = assay: Cytotoxicity (Alamar Blue), NCI-H1975-BCRP; type: cell-based, human; conditions: 72 h, no elastase
Method: (§1) Cells (6 × 10^3 cells/well) were plated in RPMI-1640 medium supplemented with 2% fetal calf serum (FCS) minimal media (MM) in 96-well plates and allowed to adhere at 37 °C/5% CO2 for 24 h. […] The cells were incubated at 37 °C/5% CO2 for 72 h. Then, Alamar Blue (#DAL1100, Invitrogen, Waltham, MA, USA) was added at a 1:1 ratio, the cells were incubated at 37 °C/5% CO2 for 4 h, and fluorescence (530 nm/590 nm) was measured with a VICTOR X2 Multilabel Reader (PerkinElmer, Waltham, MA, USA). The fluorescent signal was directly proportional to the number of viable cells. The half-maximal growth inhibition (IC50) was determined from the dose–response curves using the GraphPad Prism software.

Caco-2 cells = assay: Flux assay in Caco-2 cells; type: in vitro ADME, human; conditions: 2 μM, 2 h
Method: (§2) Before and after incubation for 2 h at 37 °C, samples were taken from both compartments and analyzed by LC-MS/MS. The apparent permeability coefficient (Papp) was calculated for both the apical to basolateral (A → B) and the basolateral to apical (B → A) direction as described by Schwab et al..

NCI-H1975 cells = assay: Cytotoxicity (Alamar Blue), parental NCI-H1975; type: cell-based, human; conditions: 72 h, no elastase
Method: as §1

NCI-H1975-P-gp cells = assay: Cytotoxicity (Alamar Blue), NCI-H1975-P-gp; type: cell-based, human; conditions: 72 h, no elastase
[4] = target: T1, human P-gp-expressing LLC-PK1 cells (Homo sapiens, UniProt P08183); assay: Flux assay in human P-gp-expressing LLC-PK1 (L-MDR1) cells; type: in vitro ADME; conditions: 2 μM, 2 h
T1 construct: Schinkel, Netherlands Cancer Institute; host or cells: LLC-PK1 porcine renal epithelial cells (L-MDR1)
T1 sequence (P08183 whole entry): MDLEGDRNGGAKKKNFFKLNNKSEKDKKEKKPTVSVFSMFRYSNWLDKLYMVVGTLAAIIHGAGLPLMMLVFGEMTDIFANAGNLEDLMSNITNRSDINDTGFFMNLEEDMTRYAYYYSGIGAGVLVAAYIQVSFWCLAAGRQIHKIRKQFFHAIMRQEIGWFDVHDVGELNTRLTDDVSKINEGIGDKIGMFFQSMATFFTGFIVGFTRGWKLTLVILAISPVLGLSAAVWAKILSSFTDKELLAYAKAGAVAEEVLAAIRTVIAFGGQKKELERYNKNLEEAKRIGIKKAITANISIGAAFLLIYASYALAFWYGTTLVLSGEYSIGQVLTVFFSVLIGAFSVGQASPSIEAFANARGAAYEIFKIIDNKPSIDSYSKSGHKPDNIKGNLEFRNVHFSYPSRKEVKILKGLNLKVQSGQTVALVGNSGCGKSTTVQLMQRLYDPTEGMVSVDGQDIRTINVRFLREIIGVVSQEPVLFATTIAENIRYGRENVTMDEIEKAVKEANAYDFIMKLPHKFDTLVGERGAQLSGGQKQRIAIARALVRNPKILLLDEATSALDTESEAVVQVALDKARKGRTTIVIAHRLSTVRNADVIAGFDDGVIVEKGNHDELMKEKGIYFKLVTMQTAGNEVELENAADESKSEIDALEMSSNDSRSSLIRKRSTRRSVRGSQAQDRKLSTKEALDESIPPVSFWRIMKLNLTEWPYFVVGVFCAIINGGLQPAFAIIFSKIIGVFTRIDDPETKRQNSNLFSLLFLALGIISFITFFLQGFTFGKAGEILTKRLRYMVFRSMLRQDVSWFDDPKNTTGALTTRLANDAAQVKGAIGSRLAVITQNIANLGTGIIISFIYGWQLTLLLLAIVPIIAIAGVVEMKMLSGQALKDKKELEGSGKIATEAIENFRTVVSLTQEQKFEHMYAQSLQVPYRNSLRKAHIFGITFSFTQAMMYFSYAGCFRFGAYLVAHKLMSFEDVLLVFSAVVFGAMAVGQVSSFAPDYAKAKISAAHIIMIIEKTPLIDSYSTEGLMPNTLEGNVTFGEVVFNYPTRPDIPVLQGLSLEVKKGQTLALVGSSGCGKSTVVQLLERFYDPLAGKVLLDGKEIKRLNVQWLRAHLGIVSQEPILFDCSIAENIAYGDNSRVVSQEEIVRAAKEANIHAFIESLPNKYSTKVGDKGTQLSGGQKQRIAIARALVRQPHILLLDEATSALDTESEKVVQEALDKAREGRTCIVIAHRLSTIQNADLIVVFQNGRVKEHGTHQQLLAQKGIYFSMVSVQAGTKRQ
Method: as §2

[5] = cisplatin 3 mg/kg, Q3Dx14, i.p.
[6] = MX-1, irinotecan 15 mg/kg, 4 on/3 off, i.v., Day 86, RECIST
[7] = MX-1, irinotecan 30 mg/kg, Q2/3Dx9, i.v., Day 86, RECIST
[8] = irinotecan 15 mg/kg, 4 on/3 off, i.v.
[9] = irinotecan 30 mg/kg, Q2/3D, i.v.
[10] = topotecan 0.5 mg/kg, 7 on/7 off, i.v.

O=c1[nH]cc(F)c(=O)[nH]1 [5-FU, 5-fluorouracil]
Treatment/Control Ratio ([1]; 5-FU 100 mg/kg, Q7D, i.p.): 0.54 ***
Response: PD (progressive disease) ([1]; 5-FU 100 mg/kg, Q7D, i.p.): PD: 8/8

N.N.[Cl][Pt][Cl] [Cisplatin]
Treatment/Control Ratio [2, 5]: 0.25 ***
Response: PD (progressive disease) [2, 5]: 7/8
Response: SD (stable disease) [2, 5]: 1/8
Relative body weight loss ([2]; NCI-H69 tumor-bearing mice, cisplatin 3 mg/kg, Q3Dx14, i.p.): > 10%
Animal deaths ([2]; NCI-H69 tumor-bearing mice, cisplatin 3 mg/kg, Q3Dx14, i.p., Day 46): one animal died

COc1cccc2c1C(=O)c1c(O)c3c(c(O)c1C2=O)C[C@@](O)(C(=O)CO)C[C@@H]3O[C@H]1C[C@H](N)[C@H](O)[C@H](C)O1 [Doxorubicin]
Treatment/Control Ratio ([3]; MX-1, doxorubicin 10 mg/kg, Q14Dx2, i.v., Day 86): 0.49 ***

CCc1c2c(nc3ccc(OC(=O)N4CCC(N5CCCCC5)CC4)cc13)-c1cc3c(c(=O)n1C2)COC(=O)[C@]3(O)CC [Irinotecan]
Treatment/Control Ratio ([3]; MX-1, irinotecan 15 mg/kg, 4 on/3 off, i.v., Day 86): 0.002 ***
Response: CR (complete response) [3, 6]: CR: 4/8, PR: 4/8
Response: PR (partial response) [3, 6]: CR: 4/8, PR: 4/8
Tumor regrowth after treatment was stopped ([3]; MX-1, irinotecan 30 mg/kg, Q2/3Dx9, i.v.): clear tumor regrowth
Treatment/Control Ratio ([3]; MX-1, irinotecan 30 mg/kg, Q2/3Dx9, i.v., Day 86): 0.15 ***^, #
Response: PR (partial response) [3, 7]: 5/7
Response: SD (stable disease) [3, 7]: 2/7
Relative body weight loss ([3]; mouse, in vivo): > 10%
Tumor regrowth after treatment cessation ([1]; all VIP236- and irinotecan-treated mice): moderate tumor regrowth
Treatment/Control Ratio [1, 8]: 0.13 ***
Response: PR (partial response) [1, 8]: 5/8
Response: SD (stable disease) [1, 8]: 3/8
Treatment/Control Ratio [1, 9]: 0.15 ***
Response: PD (progressive disease) [1, 9]: 1/8
Response: PR (partial response) [1, 9]: 4/8
Response: SD (stable disease) [1, 9]: 3/8

CCc1c2c(nc3ccc(O)cc13)-c1cc3c(c(=O)n1C2)COC(=O)[C@]3(O)CC [SN38]
IC50 (NCI-H1975-BCRP cells): 512 nM
Efflux Ratio (Caco-2 cells): 36
Permeability A → B (Caco-2 cells): 0.8 ×10⁻⁶ cm/s
IC50 (NCI-H1975 cells): 45 nM
IC50 (NCI-H1975-P-gp cells): 141 nM
Efflux Ratio [4]: 16
Permeability A → B [4]: 1 ×10⁻⁶ cm/s

CC[C@@]1(O)C(=O)OCc2c1cc1n(c2=O)Cc2cc3c(CN(C)C)c(O)ccc3nc2-1 [Topotecan]
Treatment/Control Ratio [2, 10]: 0.20 ***
Response: PD (progressive disease) [2, 10]: 7/8
Response: SD (stable disease) [2, 10]: 1/8
Relative body weight loss ([2]; NCI-H69 tumor-bearing mice, topotecan 0.5 mg/kg, 7 on/7 off, i.v.): > 10%
